Data from ChEMBL document CHEMBL1128348, “Potent non-peptide fibrinogen receptor antagonists which present an alternative pharmacophore” (J Med Chem, 1995).

Experiments:
Homo sapiens = species: Homo sapiens; test: Antiaggregatory activity against human platelet-rich plasma induced by ADP; format: functional, organism-based
[1] = molecular target: Integrin alpha-IIb/beta-3 (Homo sapiens, UniProt P05106+P08514); test: Inhibition of [3H]-SKF- 107260 binding to purified alphaIIb-beta3 integrin of human platelets
Sequence of Integrin alpha-IIb/beta-3 (P05106 27-788 limits assumed): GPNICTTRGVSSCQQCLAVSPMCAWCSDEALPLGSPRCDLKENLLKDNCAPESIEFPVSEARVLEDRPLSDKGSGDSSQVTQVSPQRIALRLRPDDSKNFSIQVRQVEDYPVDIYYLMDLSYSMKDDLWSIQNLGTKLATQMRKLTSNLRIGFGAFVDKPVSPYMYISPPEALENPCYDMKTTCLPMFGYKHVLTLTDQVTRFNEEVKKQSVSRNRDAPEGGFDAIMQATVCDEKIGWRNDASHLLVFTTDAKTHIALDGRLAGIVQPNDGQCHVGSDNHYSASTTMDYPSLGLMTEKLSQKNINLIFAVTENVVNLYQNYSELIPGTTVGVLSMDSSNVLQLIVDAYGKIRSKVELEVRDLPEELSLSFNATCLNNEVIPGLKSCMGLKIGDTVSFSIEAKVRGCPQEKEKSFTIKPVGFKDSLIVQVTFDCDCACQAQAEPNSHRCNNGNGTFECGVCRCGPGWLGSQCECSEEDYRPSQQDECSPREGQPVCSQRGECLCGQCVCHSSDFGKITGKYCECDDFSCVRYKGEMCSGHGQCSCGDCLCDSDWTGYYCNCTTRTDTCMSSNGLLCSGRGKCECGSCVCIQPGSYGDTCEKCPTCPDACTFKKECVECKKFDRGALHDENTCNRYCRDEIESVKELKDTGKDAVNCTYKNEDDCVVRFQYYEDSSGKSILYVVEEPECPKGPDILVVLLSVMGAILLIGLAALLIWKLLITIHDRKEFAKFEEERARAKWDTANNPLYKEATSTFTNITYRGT
Sequence of Integrin alpha-IIb/beta-3 (P08514 32-887 limits assumed): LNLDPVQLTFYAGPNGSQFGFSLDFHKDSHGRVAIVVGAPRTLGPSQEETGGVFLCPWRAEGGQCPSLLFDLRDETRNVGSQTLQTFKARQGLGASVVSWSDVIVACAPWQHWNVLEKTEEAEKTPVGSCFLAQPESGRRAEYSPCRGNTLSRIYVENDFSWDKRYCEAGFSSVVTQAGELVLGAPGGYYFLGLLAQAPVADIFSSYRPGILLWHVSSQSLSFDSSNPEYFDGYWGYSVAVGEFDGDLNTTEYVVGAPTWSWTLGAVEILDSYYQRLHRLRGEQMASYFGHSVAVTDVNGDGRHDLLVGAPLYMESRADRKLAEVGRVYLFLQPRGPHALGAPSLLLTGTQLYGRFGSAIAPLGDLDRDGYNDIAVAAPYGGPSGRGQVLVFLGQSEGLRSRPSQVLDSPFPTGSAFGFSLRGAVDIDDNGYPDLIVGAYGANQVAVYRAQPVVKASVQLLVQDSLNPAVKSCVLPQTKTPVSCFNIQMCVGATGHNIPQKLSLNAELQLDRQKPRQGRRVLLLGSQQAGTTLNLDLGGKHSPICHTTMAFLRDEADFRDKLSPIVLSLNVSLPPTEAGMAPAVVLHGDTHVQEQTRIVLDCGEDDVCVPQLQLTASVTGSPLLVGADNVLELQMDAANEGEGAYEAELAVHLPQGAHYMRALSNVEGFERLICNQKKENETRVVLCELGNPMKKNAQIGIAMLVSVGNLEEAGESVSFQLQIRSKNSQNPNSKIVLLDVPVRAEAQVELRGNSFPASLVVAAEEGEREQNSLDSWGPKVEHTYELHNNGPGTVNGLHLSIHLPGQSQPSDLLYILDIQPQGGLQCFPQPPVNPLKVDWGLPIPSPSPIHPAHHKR
Sequence of Integrin alpha-IIb/beta-3 (P08514 891-1039 limits assumed): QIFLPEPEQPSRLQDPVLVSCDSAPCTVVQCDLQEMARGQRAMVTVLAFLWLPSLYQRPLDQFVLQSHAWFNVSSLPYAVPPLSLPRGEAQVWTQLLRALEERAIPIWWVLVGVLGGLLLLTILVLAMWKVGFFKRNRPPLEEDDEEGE

| IC50 (Homo sapiens) [nM] | Ki [1] [nM] | Structure (SMILES) |
| --- | --- | --- |
| 150 | 2.3 | N=C(N)c1ccc(NC(=O)c2ccc3c(c2)NC(CC(=O)O)C(=O)N(CCc2ccccc2)C3)cc1 (configuration not stated) |
| 5260 | 1900 | N=C(N)NCCC[C@@H]1NC(=O)[C@@H]2CCCN2C(=O)[C@H]2CCCN2C(=O)CNC(=O)[C@H](CC(=O)O)NC(=O)CNC1=O |
| 380 | 26 | N=C(N)c1ccc(NC(=O)c2ccc3c(c2)CN(CCc2ccccc2)C(=O)C(CC(=O)O)N3)cc1 (configuration not stated) |
| 90 | – | CN1C(=O)c2ccccc2SSc2ccccc2NC(=O)[C@H](CC(=O)O)NC(=O)CNC(=O)[C@@H]1CCCN=C(N)N [SKF-107260] |
